pEC50, pIC50: −log10 of the molar value. Read-outs that look alike come from different tables or passages of the source. Bridge positions count the residues as written; N and C are the ends. Square brackets hold non-standard residues; d marks the D form. Peptide text beside a SMILES is read from it. 2Nal = N[C@@H](Cc1ccc2ccccc2c1)C(=O)O; Cit = NC(=O)NCCC[C@H](N)C(=O)O
Legend:
CXCR4 = CXCR4 (Homo sapiens, UniProt P61073); test: Competition assays: test compounds binding to CXCR4 compared to SDF-1 (Table 2); details: for IC50: competition with SDF-1 for binding to CXCR4, read-out: IC50 (nM) vs SDF-1
Chain of CXCR4 (P61073 whole entry): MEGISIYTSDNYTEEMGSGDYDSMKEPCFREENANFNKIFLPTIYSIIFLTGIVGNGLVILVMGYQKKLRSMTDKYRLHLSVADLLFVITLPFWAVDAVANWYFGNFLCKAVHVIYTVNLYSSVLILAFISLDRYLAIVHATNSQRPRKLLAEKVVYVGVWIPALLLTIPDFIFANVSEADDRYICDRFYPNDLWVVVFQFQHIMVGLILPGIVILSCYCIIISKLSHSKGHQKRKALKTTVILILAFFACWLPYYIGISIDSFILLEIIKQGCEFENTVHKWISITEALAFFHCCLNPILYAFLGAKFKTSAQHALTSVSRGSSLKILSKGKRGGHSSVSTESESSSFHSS

[1] = Half life of the compounds in mice; type: in vivo; details: for half-life: mouse, in vivo, read-out: t½ (min) in mice
Description: A pharmacokinetic study of a novel anti-HIF-1α small molecule was performed. A stably integrated hypoxia-reporter system of glioma cells transfected with the hypoxia-reporting plasmid (described above) was utilized. A natural product-like small molecule library of 10,000 compounds was screened and the “best hit” was identified. HPLC methodology was developed for quantitatively detecting KCN-1 in plasma and other biological samples. For the pharmacokinetic study, KCN-1 (100 mg/kg) was dissolved in DMSO and administered intravenously to mice. Plasma samples were collected at given time Points (0.25, 0.5, 1, 2, 4 and 8 h) and KCN-1 levels were quantified by HPLC. The HPLC system consisted of a Varian Prostar gradient pump, a Prostar autosampler and a Prostar photo diode array detector. The column was a Luna 5μ C18 column (4.6 mm×250 mm, Phenomenex). The retention time of KCN1 and the internal standard were 8.7 and 17.7 min, respectively (FIG. 13). The in vivo stability of WZZL811S and WZ40 were measured after systemic administration of compounds over two hours (FIG. 17).
The half life of the compounds in mice where determined are also shown.

SHIV = SHIV infection, p27 antigen capture; type: cell-based; details: 0.1, 1, 10 or 100 nM drug prior to infection; 2 to 5 days
Description: The effect of the test compounds on HIV infection in model cells was analyzed by p27 antigen capture using SHIV infected cells. Cells were incubated with 0, 0.1, 1, 10 or 100 nM drug prior to infection with SHIV. Viral titer was measured after infection by analyzing levels of p27 antigen. […] The inhibition was measurable at 2 days, and continued to 5 day incubations.

phosphorylation of Akt = test: SDF-1-stimulated phosphorylation of Akt (western blot); type: cell-based, human
Excerpt: FIG. 2 is an image of a western blot showing phosphorylation of Akt.
FIG. 10 is a graph and representative blot of matrigel invasion and Akt phosphorylation in cells.
(§1) CXCR4/SDF-1 interaction activates PI3K/Akt and Ras/Raf/MEK/Erk pathways in a Gαi protein (PTX-sensitive)-dependent manner.

metastatic 686LN cells = test: Head & Neck cancer metastasis model, 686LN cells injected through the tail vein, FDG-PET; type: in vivo, mice; details: 20 mg/mouse/twice weekly, thirty days
Description: The metastatic 686LN cells were injected intravenously through the tail vein to generate experimental animal models for Head & Neck cancer metastasis, modulated via CXCR4. […] These 3-D projection images show lung metastases well (bone mets and liver mets were apparent in axial section images of mice in control groups, data not shown).

CXCR4 protein levels = CXCR4 protein levels in treated cells; type: cell-based, human
Excerpt: as §1

Erk1/2 phosphorylation = test: SDF-1-stimulated Erk1/2 phosphorylation; type: cell-based, human; details: data not shown
Excerpt: as §1

HIV = details: MT-4 cells; read-out: concentration required for 50% protection of HIV-induced cytopathogenicity; cited from earlier work
[2] = test system: human umbilical vein endothelial cells (HUVECs); test: Endothelial capillary tube formation assay; type: cell-based; details: 100 nM, SDF-1 100 ng/ml, 18 hours
Description: The anti-angiogenic effect of test compounds was measured by analyzing endothelial cell growth and tube formation. The angiogenic effect of SDF-1 (100 ng/ml) on capillary formation by human umbilical vein endothelial cells (HUVECs) was examined in vitro using Matrigel-coated 24-well plates precoated with Matrigel and incubated for 18 hours. The angiogenic effect of SDF-1 was inhibited by either 100 nM TN14003 (peptide-based CXCR4 antagonist) or WZZL811S treatment (FIG. 14a, graph FIG. 14b).

MT-4 cells = details: cited from earlier work
[3] = test system: CXCR4/SDF-1 mediated invasion of MDA-MB-231; test: Matrigel invasion assay, CXCR4/SDF-1-mediated invasion; type: cell-based, human; details: MDA-MB-231, 2 nM
Description: FIG. 10 is a graph and representative blot of matrigel invasion and Akt phosphorylation in cells. A: Inhibition of CXCR4/SDF-1 mediated invasion of MDA-MB-231 in vitro by WZZL811S. CXCR4/SDF-1 mediated invasion of MDA-MB-231 was blocked either by 2 nM of TN14003 or WZZL811S. B: Incubating MDA-MB-231 cells with 100 ng/ml of SDF-1 for 30 min stimulated phosphorylation of Akt that blocked by WZZL811S in a dose-dependent manner
Lowering CXCR4 mRNA levels by siRNAs inhibited CXCR4/SDF-1-mediated invasion as measured by a matrigel invasion assay. The CXCR4 ligand, SDF-1 (400 ng/ml) was added to the lower chamber to attract CXCR4-positive breast cancer cells to migrate through the matrigel. The invasion of MDA-MB-231 cells transfected with siRNA1 decreased to 39±4% of the control cells, 51±8% with siRNA2, and only 16±6% with both siRNA1+2 (FIG. 3A).
WZZL811S was tested in a matrigel invasion assay to determine whether it can inhibit CXCR4/SDF-1-mediated invasion.

Row | Molecule | IC50 (CXCR4) | also measured
1 | COc1ccc(NCc2ccc(CNc3ccc(OC)cc3)cc2)cc1 [MSX-125] | > 10 nM | –
2 | Cc1cc(CN)c(C)cc1CN [MSX-126] | > 1000 nM | –
3 | Oc1cc(CN2CCOCC2)c(O)cc1CN1CCOCC1 [MSX-127] | > 1000 nM | –
4 | c1ccc(-c2nc(-c3ccc(-c4nc(-c5ccccc5)c(-c5ccccc5)[nH]4)cc3)[nH]c2-c2ccccc2)cc1 [MSX-130] | > 1000 nM | –
5 | c1cc(CNC2=NCCN2)ccc1CNC1=NCCN1 [MSX-133] | > 1000 nM | –
6 | COc1cccc(NC(=O)c2ccc(C(=O)Nc3cccc(OC)c3)cc2)c1 [MSX-137] | > 1000 nM | –
7 | FC(F)(F)c1cccc(NCc2ccc(CNc3cccc(C(F)(F)F)c3)cc2)c1 [MSX-138] | > 1000 nM | –
8 | CN(C)Cc1ccc(CN(C)C)cc1 [MSX-141] | > 1000 nM | –
9 | Fc1ccc(NCc2ccc(CNc3ccc(F)cc3)cc2)cc1 [MSX-142] | > 1000 nM | –
10 | CN(C)CCNCc1ccc(CNCCN(C)C)cc1 [MSX-156s] | > 1000 nM | –
11 | c1ccc(NCCNCc2ccc(CNCCNc3ccccc3)cc2)cc1 [MSX-158] | > 1000 nM | –
12 | c1cc(CNCc2ccc(CNCc3ccncc3)cc2)ccn1 [MSX-159s] | > 1000 nM | –
13 | c1cncc(CNCc2ccc(CNCc3cccnc3)cc2)c1 [MSX-160] | > 1000 nM | –
14 | c1ccc(CNCc2ccc(CNCc3ccccn3)cc2)nc1 [MSX-161s] | > 1000 nM | –
15 | CN(Cc1ccc(CN(C)c2ccccc2)cc1)c1ccccc1 [MSX-164] | > 100 nM | –
16 | c1ccc(NCc2cc(CNc3ccccc3)cc(CNc3ccccc3)c2)cc1 [MSX-166] | > 1000 nM | –
17 | O=C(Nc1ccccc1)c1cc(CNc2ccccc2)cc(CNc2ccccc2)c1 [MSX-167] | > 100 nM | –
18 | c1ccc(NCCc2ccc(CCNc3ccccc3)cc2)cc1 [MSX-170] | > 100 nM | –
19 | c1ccc(NC[C@H]2CC[C@@H](CNc3ccccc3)CC2)cc1 [MSX-171] | > 1000 nM | –
20 | Cc1c(C)c(CNc2ccccc2)c(C)c(C)c1CNc1ccccc1 [MSX-172] | – | half-life [1]: < 5 min
21 | c1ccc(NCc2c3ccccc3c(CNc3ccccc3)c3ccccc23)cc1 [MSX-174] | > 100 nM | –
22 | c1ccc(NCc2ccccc2CNc2ccccc2)cc1 [MSX-176] | > 100 nM | –
23 | N#Cc1ccc(NCc2ccc(CNc3ccc(C#N)cc3)cc2)cc1 [MSX-177] | > 1000 nM | –
24 | O=[N+]([O-])c1ccc(NCc2ccc(CNc3ccc([N+](=O)[O-])cc3)cc2)cc1 [MSX-178] | – | pIC50 (CXCR4): < 6.00
25 | Oc1ccc(NCc2ccc(CNc3ccc(O)cc3)cc2)cc1 [MSX-179] | > 1000 nM | –

Row | Molecule | IC50 (CXCR4) | also measured
26 | Fc1cccc(NCc2ccc(CNc3cccc(F)c3)cc2)c1 [MSX-184] | > 100 nM | –
27 | Fc1ccc(NCc2ccc(CNc3ccc(F)cn3)cc2)nc1 [MSX-185] | < 100 nM | –
28 | OCc1ccc(CNc2ccc(F)cn2)cc1 [MSX-186] | > 1000 nM | –
29 | [O-][n+]1cccnc1NCc1ccc(CNc2nccc[n+]2[O-])cc1 [MSX-189] | > 1000 nM | –
30 | Clc1nc(Cl)nc(NCc2ccc(CNc3nc(Cl)nc(Cl)n3)cc2)n1 [MSX-190] | – | half-life [1]: < 5 min
31 | Fc1cnc(NCc2ccc(CNc3ncc(F)c(Cl)n3)cc2)nc1Cl [MSX-192] | 1 nM | –
32 | Fc1nccc(NCc2ccc(CNc3ccnc(F)n3)cc2)n1 [MSX-193] | 1 nM | half-life [1]: 30 min
33 | Fc1ccc(NCc2ccc(CNc3ncccn3)cc2)nc1 [MSX-197] | 1 nM | half-life [1]: 16.5 min
34 | c1ccc(NCc2ccc(CNc3ncccn3)cc2)nc1 [MSX-198] | < 100 nM | –
35 | COc1nc(NCc2ccc(CNc3ncc(F)c(OC)n3)cc2)ncc1F [MSX-201] | 1 nM | –
36 | O=[N+]([O-])c1ccccc1NCc1ccc(CO)cc1 [MSX-202] | 1 nM | half-life [1]: < 5 min
37 | O=[N+]([O-])c1cccc(NCc2ccc(CNc3cccc([N+](=O)[O-])c3)cc2)c1 [MSX-203] | – | t½ (min) in mice [1]: infinite; pIC50 (CXCR4): 9.00
38 | FCc1ccc(CNc2ncccn2)cc1 [MSX-207] | 1 nM | half-life [1]: 11 min
39 | c1ccc(OCc2ccc(COc3ccccn3)cc2)nc1 [MSX-213] | > 1000 nM | –
40 | Clc1cccc(NCc2ccc(CNc3ncccn3)cc2)n1 [MSX-221] | 1 nM | –
41 | Fc1cccc(NCc2ccc(CNc3ncccn3)cc2)n1 [MSX-222] | – | half-life [1]: 15 min
42 | N=C(N)NCCC[C@H](NC(=O)[C@@H]1CSSC[C@H](NC(=O)[C@H](Cc2ccc3ccccc3c2)NC(=O)[C@H](CCCNC(=N)N)NC(=O)[C@@H](N)CCCNC(=N)N)C(=O)N[C@@H](Cc2ccc(O)cc2)C(=O)N[C@@H](CCCNC(N)=O)C(=O)N[C@@H](CCCCN)C(=O)N[C@H](CCCCN)C(=O)N2CCC[C@H]2C(=O)N[C@@H](Cc2ccc(O)cc2)C(=O)N[C@@H](CCCNC(=N)N)C(=O)N[C@@H](CCCNC(N)=O)C(=O)N1)C(N)=O [TN-14003, reference compound] (H-RR[2Nal]CY[Cit]K[dK]PYR[Cit]CR-NH2; disulfide 4-13 (inferred); N-terminus assumed) | < 1 nM | –
43 | N=C(N)NCc1ccc(CNC(=N)N)cc1 [WZ5S] | – | melting point: 278 to 281 °C (dec.)
44 | c1ccc(NCCNCc2ccc(CNCCNc3ccccc3)cc2)cc1 [WZ8] | – | melting point: 42 to 43 °C
45 | c1ccc(NCc2ccc(CNc3ccccc3)cc2)cc1 [WZ13] | – | melting point: 126 to 127 °C
46 | O=C(Nc1ccccc1)c1cc(C(=O)Nc2ccccc2)cc(C(=O)Nc2ccccc2)c1 [WZ20] | – | melting point: 318 to 320 °C
47 | c1cnc(NCc2ccc(CNc3ncccn3)cc2)nc1 [WZ40] | – | inhibition of SHIV infection (p27 antigen) (SHIV): inhibited SHIV infection at all concentrations tested
48 | OCc1ccc(CNc2ncccn2)cc1 [WZ41] | – | inhibition of SHIV infection (p27 antigen) (SHIV): inhibited SHIV infection at all concentrations tested
49 | TN14003 | – | concentration blocking Akt activation (phosphorylation of Akt; 100 ng/ml SDF-1 for 30 minutes): sub-nano molar; blocking of SDF-1-stimulated Akt phosphorylation (dose-dependent) (phosphorylation of Akt; MDA-MB-231 cells, 100 ng/ml SDF-1 for 30 min): blocked; metastasis of 686LN cells to organs (metastatic 686LN cells): failed to metastasize to any organs; effect on CXCR4 protein levels (CXCR4 protein levels): did not affect; concentration attenuating Erk1/2 phosphorylation (Erk1/2 phosphorylation): sub-nano molar; pEC50 (HIV): 9.22; inhibition of the angiogenic effect of SDF-1 (tube formation) [2]: inhibited; concentration leading to 50% toxicity (MT-4 cells): 410 µM; blocking of SDF-1-induced matrigel invasion [3]: blocked

Reference: patent US20160002174A1, “CXCR4 Antagonists for the Treatment of Medical Disorders” (Emory University, priority 2005, published 2016)
